In patent publication US12398141B2 (SHANGHAI SYNERGY PHARMACEUTICAL SCIENCES CO., LTD, priority 2019, dated 2025) one finds IC50 and JAK2/JAK1 data, which are given here for 20 compounds.

Structures are written as SMILES. Where two headings read alike, the source gives them in different places.

Common to all, as to assay type: biochemical
One assay has as its target JAK2 (Homo sapiens (Human), UniProt O60674). As to the kind of experiment: JAK2 LANCE Ultra kinase assay. Particulars: 12 uM ATP. In general terms: TR-FRET usually uses a lanthanide donor and a delayed reading to cut background.
A further assay concerns the target JAK3 (Homo sapiens (Human), UniProt P52333). The experiment in a line: JAK3 LANCE Ultra kinase assay.
The next assay addresses JAK1 (Homo sapiens (Human), UniProt P23458). The experiment in a line: JAK1 LANCE Ultra kinase assay. The note with it: for IC50: 38 uM ATP; for JAK2/JAK1: ratio of IC50 JAK2 to IC50 JAK1. How it is done: Inhibition test on activity of JAK kinase in vitro was carried out by the following methods.
JAK1 LANCE® Ultra assay, JAK2 LANCE® Ultra assay and JAK3 LANCE® Ultra assay were used to carry out the test separately, and kits of the above assays were supplied by PerkinElmer. […]
JAK1, JAK2 and JAK3 kinase, ATP and substrates were dissolved and diluted with buffers.
A test liquid was 2 nM Eu-W1024 anti-phosphotyrosine (PerkinElmer, AD0069). A stop buffer was 10 mM edetic acid (Intech, 1842C505).
2.5 μl of an 8-fold solution of the compound and 5 μl of a 4-fold solution of JAK1 or JAK2 or JAK3 kinase were added into a 384-well plate, respectively, and reacted for 10 minutes at room temperature. 2.5 μl of an 8-fold solution of ULight™-JAK-1 peptide/ATP was added and reacted for 90 minutes at room temperature. Finally, 5 μl of 4-fold edetic acid stop buffer and 5 μl of 4-fold test liquid of Eu-W1024 anti-phosphotyrosine were added and incubated for 60 minutes.
According to the formula: percentage of inhibition rate=(maximum value−transform value)/(maximum value−minimum value)×100, inhibition rate of each compound at various concentrations was calculated. The maximum value was the reference value of dimethyl sulfoxide added into the well plate, the minimum value was the blank value, and the transform value is the value obtained by the well of each compound. The IC50 values of the corresponding compounds were then obtained by fitting by using the XLFit fitting tool in excel.

Chain of JAK2 (O60674 whole entry): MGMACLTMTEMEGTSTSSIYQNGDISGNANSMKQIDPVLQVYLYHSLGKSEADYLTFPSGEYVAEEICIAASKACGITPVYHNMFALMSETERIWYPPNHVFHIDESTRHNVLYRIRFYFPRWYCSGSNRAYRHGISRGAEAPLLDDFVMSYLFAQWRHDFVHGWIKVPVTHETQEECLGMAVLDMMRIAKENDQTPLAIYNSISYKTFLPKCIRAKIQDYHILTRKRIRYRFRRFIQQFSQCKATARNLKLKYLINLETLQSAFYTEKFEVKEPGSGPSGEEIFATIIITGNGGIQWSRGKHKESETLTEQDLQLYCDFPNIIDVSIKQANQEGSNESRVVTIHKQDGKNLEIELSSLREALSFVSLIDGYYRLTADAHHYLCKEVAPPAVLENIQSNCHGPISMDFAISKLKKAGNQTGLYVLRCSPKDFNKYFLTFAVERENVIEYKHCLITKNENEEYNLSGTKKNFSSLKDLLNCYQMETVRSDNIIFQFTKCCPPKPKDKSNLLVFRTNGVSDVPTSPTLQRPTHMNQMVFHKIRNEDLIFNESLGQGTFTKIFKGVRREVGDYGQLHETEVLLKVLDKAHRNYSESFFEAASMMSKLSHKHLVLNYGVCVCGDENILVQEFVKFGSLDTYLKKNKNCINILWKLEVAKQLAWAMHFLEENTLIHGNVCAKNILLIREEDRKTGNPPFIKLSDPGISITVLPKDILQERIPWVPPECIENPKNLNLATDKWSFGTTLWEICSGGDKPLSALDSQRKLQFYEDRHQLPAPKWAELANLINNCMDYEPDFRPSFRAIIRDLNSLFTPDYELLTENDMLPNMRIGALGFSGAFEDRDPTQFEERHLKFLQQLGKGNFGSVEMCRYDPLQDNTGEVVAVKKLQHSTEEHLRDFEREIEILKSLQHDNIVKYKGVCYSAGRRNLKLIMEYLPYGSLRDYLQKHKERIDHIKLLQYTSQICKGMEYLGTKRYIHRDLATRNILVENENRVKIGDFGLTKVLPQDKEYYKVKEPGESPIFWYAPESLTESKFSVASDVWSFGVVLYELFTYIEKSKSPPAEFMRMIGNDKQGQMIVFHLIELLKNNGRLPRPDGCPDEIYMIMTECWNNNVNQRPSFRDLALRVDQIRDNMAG
Chain of JAK3 (P52333 whole entry): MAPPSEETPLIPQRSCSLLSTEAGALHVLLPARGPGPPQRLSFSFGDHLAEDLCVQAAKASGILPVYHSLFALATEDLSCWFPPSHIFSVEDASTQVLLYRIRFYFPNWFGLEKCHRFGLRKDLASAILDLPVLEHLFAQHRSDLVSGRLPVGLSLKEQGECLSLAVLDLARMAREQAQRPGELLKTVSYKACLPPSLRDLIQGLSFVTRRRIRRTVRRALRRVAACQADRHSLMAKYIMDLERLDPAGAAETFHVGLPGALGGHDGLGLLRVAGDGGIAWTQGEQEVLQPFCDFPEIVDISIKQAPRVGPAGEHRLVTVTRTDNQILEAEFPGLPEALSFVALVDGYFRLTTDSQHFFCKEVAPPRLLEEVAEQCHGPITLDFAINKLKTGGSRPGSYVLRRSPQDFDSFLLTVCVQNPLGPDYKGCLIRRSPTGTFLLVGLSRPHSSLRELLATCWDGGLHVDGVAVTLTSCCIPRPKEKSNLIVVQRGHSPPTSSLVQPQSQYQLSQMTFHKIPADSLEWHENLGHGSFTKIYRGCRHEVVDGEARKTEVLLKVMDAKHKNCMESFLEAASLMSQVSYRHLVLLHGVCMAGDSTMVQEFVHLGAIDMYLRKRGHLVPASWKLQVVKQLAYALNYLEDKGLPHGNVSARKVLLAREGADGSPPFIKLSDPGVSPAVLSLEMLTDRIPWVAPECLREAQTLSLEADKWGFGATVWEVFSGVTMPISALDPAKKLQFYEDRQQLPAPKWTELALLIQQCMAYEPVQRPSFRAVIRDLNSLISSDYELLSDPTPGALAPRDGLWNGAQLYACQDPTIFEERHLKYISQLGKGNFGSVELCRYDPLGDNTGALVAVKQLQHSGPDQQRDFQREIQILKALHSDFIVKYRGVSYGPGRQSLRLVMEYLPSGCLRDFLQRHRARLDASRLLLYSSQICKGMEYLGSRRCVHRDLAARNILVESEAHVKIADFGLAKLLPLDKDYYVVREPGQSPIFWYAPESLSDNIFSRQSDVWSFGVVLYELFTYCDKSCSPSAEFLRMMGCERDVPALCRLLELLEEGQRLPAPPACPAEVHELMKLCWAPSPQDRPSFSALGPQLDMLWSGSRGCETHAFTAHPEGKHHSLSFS
Chain of JAK1 (P23458 whole entry): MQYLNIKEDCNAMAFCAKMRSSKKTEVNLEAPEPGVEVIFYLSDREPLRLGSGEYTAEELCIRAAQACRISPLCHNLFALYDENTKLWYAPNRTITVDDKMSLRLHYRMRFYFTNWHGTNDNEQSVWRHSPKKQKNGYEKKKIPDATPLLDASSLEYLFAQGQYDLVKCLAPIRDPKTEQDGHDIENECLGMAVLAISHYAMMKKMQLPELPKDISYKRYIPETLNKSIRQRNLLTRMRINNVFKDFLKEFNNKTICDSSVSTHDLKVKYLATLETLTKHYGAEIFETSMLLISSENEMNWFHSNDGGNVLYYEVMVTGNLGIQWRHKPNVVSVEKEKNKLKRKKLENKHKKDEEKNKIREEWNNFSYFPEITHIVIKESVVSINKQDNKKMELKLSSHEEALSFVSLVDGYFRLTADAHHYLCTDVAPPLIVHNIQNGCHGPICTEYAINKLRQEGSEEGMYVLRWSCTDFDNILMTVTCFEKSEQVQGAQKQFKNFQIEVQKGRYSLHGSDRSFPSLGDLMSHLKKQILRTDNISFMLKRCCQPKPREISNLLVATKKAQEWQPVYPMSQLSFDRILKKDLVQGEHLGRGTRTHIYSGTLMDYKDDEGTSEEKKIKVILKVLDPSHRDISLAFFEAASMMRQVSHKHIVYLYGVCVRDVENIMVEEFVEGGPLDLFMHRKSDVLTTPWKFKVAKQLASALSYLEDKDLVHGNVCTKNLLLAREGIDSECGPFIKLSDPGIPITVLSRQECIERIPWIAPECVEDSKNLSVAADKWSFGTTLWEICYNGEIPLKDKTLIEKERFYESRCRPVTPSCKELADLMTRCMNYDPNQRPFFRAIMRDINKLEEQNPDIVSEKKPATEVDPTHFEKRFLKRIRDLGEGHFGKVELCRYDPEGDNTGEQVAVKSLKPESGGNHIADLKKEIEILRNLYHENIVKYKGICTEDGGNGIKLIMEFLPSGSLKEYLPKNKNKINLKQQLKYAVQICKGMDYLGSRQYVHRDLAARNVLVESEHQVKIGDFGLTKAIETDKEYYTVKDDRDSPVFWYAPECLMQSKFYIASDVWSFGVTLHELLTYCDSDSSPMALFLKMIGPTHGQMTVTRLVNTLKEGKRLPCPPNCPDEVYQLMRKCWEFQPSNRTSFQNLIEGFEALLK

For orientation: IC50 means the concentration at which inhibition is half-maximal. A high value points to weaker potency in that assay. With `C[C@@H]1CN(C(=O)CC#N)C[C@@H]1N(C)c1c(C#N)cnc2[nH]ccc12` (relative stereo) [Compound H05, (cis)-4-{[4-methyl-1-(2-cyanoacetyl)pyrrolidin-3-yl]-methyl-amino}-1H-pyrrolo[2,3-b]pyridin-5-carbonitrile], the values for the IC50 against JAK2, on JAK3 (4 uM ATP) and on JAK1 were 12.3 nM, 256 nM and 7.86 nM, respectively. In addition, at JAK1, the JAK2/JAK1 is given as 1.56.
For `C[C@@H]1CN(S(=O)(=O)C[C@H]2CC[C@H](N(C)c3c(C#N)cnc4[nH]ccc34)CC2)C[C@H]1CO` (relative stereo) [Compound H66, 4-((trans-4-(((trans-3-(hydroxymethyl)-4-methylpyrrolidin-1-yl)sulfonyl)methyl)cyclohexyl)(methyl)amino)-1H-pyrrolo[2,3-b]pyridin-5-carbonitrile] the same measures were 126 nM, 197 nM, 8.9 nM and 14.16.
For `CC(C)[C@@H]1CN(C(=O)NCC(F)(F)F)C[C@@H]1Nc1c(C#N)cnc2[nH]ccc12` (relative stereo) [Compound H73, (cis)-3-((5-cyano-1H-pyrrolo[2,3-b]pyridin-4-yl)amino)-4-isopropyl-N-(2,2,2-trifluoroethyl)pyrrolidin-1-carboxamide] the same measures were 30 nM, 157 nM, 4.9 nM and 6.12.
In the case of `CC[C@@H]1CN(C(=O)NC(C)C)C[C@@H]1Nc1c(C#N)cnc2[nH]ccc12` (relative stereo) [Compound H75], the IC50 on JAK2 amounted to 17.3 nM; against JAK3 it was 89 nM.
In the case of `CC[C@@H]1CN(S(=O)(=O)CCC(F)(F)F)C[C@@H]1Nc1c(C#N)cnc2[nH]ccc12` (relative stereo) [Compound H76, 4-(((cis)-4-ethyl-1-((3,3,3-trifluoropropyl)sulfonyl)pyrrolidin-3-yl)amino)-1H-pyrrolo[2,3-b]pyridin-5-carbonitrile], the IC50 on JAK2 amounted to 7.8 nM; against JAK3 (4 uM ATP), 91 nM; at JAK1, 0.95 nM. Further, the JAK2/JAK1 on JAK1 is listed as 8.21.
For `CC[C@@H]1CN(C(=O)CCC(F)(F)F)C[C@@H]1Nc1c(C#N)cnc2[nH]ccc12` (relative stereo) [Compound H77, 4-(((cis)-4-ethyl-1-(4,4,4-trifluorobutyryl)pyrrolidin-3-yl)amino)-1H-pyrrolo[2,3-b]pyridin-5-carbonitrile] the same measures were 49 nM, 273 nM, 4.2 nM and 11.67.
Regarding `CC[C@@H]1CN(C(=O)NCC(C)C)C[C@@H]1Nc1c(C#N)cnc2[nH]ccc12` (relative stereo) [Compound H79, (cis)-3-((5-cyano-1H-pyrrolo[2,3-b]pyridin-4-yl)amino)-4-ethyl-N-isobutylpyrrolidin-1-carboxamide], the IC50 against JAK2 worked out at 6.5 nM; against JAK3 (4 uM ATP), 59 nM; against JAK1, 0.96 nM. The JAK2/JAK1 at JAK1 was determined as 6.77.
For `CC[C@@H]1CN(C(=O)CCC#N)C[C@@H]1Nc1c(C#N)cnc2[nH]ccc12` (relative stereo) [Compound H81, 4-(((cis)-1-(3-cyanopropionyl)-4-ethylpyrrolidin-3-yl)amino)-1H-pyrrolo[2,3-b]pyridin-5-carbonitrile] the same measures were 117 nM, 162 nM, 9.3 nM and 12.58.
The like results for `CC[C@@H]1CN(C(=O)NC2CC2)C[C@@H]1Nc1c(C#N)cnc2[nH]ccc12` (relative stereo) [Compound H84, (cis)-3-((5-cyano-1H-pyrrolo[2,3-b]pyridin-4-yl)amino)-N-cyclopropyl-4-ethylpyrrolidin-1-carboxamide] were, in that order, 38 nM, 387 nM, 6.9 nM and 5.51.
The like results for `CC[C@@H]1CN(C(=O)NCC(C)(C)C)C[C@@H]1Nc1c(C#N)cnc2[nH]ccc12` (relative stereo) [Compound H86, (cis)-3-((5-cyano-1H-pyrrolo[2,3-b]pyridin-4-yl)amino)-4-ethyl-N-neopentyl-pyrrolidin-1-carboxamide] were, in that order, 29 nM, 169 nM, 1.41 nM and 20.57.
With `CC[C@@H]1CN(CCC#N)C[C@@H]1Nc1c(C#N)cnc2[nH]ccc12` (relative stereo) [Compound H88, 4-(((cis)-1-(2-cyanoethyl)-4-ethylpyrrolidin-3-yl)amino)-1H-pyrrolo[2,3-b]pyridin-5-carbonitrile], the IC50 at JAK2 came to 7.9 nM; against JAK3 (4 uM ATP), 112 nM; against JAK1 it was 0.86 nM. Besides, the JAK2/JAK1 on JAK1 amounted to 9.19.
For `CC[C@@H]1CN(C(=O)NCC(C)(F)F)C[C@@H]1Nc1c(C#N)cnc2[nH]ccc12` (relative stereo) [Compound H89, (cis)-3-((5-cyano-1H-pyrrolo[2,3-b]pyridin-4-yl)amino)-N-(2,2-difluoropropyl)-4-ethylpyrrolidin-1-carboxamide] the same measures were 19.7 nM, 241 nM, 2.9 nM and 6.79.
The like results for `O=C(NCC(F)(F)F)N1C[C@H](Nc2c(C(F)(F)F)cnc3[nH]ccc23)[C@H](C2CC2)C1` (relative stereo) [Compound H91, (cis)-3-cyclopropyl-N-(2,2,2-trifluoroethyl)-4-((5-(trifluoromethyl)-1H-pyrrolo[2,3-b]pyridin-4-yl)amino)pyrrolidin-1-carboxamide] were, in that order, 18.7 nM, 96 nM, 0.92 nM and 20.33.
For `CC[C@@H]1CC(NC(=O)CCC(F)(F)F)C[C@@H]1Nc1c(C#N)cnc2[nH]ccc12` (stereo in doubt) [Compound H59, N-(3-((5-cyano-1H-pyrrolo[2,3-b]pyridin-4-yl)amino)-4-ethylcyclopentyl)-4,4,4-trifluorobutanamide] the same measures were 11.6 nM, 39.6 nM, 2.06 nM and 5.63.
For `C[C@H](O)C(=O)N1C[C@H]2C[C@@H](N(C)c3c(C#N)cnc4[nH]ccc34)C[C@H]2C1` [Compound H06, (3aR,5R,6aS)-4-{[2-((2S)-2-hydroxypropionyl)-hexahydrocyclopenta[c]pyrrole-5-yl]-methyl-amino}-1H-pyrrolo[2,3-b]pyridin-5-carbonitrile], the IC50 against JAK2 is 29.9 nM; against JAK3 (4 uM ATP) it was 96 nM; against JAK1, 6.68 nM.
The like results for `CN(c1c(C#N)cnc2[nH]ccc12)[C@H]1C[C@@H](NS(=O)(=O)CCC(F)(F)F)C1` [Compound H10, 4-{[3-(3,3,3-trifluoropropanesulfonamido)-cyclobutyl-1-yl]-methyl-amino}-1H-pyrrolo[2,3-b]pyridin-5-carbonitrile] were, in that order, 36 nM, 143 nM and 4.98 nM.
Regarding `N#Cc1cnc2[nH]ccc2c1N[C@H]1C[C@@H](NS(=O)(=O)c2cccc(C(F)(F)F)c2)C1` [Compound H13, (cis)-4-{[3-(3-(trifluoromethyl)benzenesulfonamido)-cyclobutyl-1-yl]-amino}-1H-pyrrolo[2,3-b]pyridin-5-carbonitrile], the figures for the IC50 against JAK2, against JAK3 (4 uM ATP) and against JAK1 were 21 nM, 58.9 nM and 2.96 nM, respectively. Further, at JAK1, the JAK2/JAK1 turned out to be 7.09.
Take `CN(c1c(C#N)cnc2[nH]ccc12)C1CC(NS(=O)(=O)c2ccc(C(F)(F)F)cc2)C1` (stereo not drawn) [Compound H16, (cis)-4-{[3-(4-trifluoromethylbenzenesulfonamido)-cyclobutyl-1-yl]-methyl-amino}-1H-pyrrolo[2,3-b]pyridin-5-carbonitrile]: the figures for the IC50 against JAK2, at JAK3 (4 uM ATP) and on JAK1 were 132 nM, 633 nM and 9.16 nM, respectively. Besides, the JAK2/JAK1 at JAK1 came out at 14.41.
`N#Cc1cnc2[nH]ccc2c1N[C@H]1C[C@@H](NS(=O)(=O)c2ccc(C(F)(F)F)cc2)C1` [Compound H17, (cis)-4-{[3-(4-trifluoromethylbenzenesulfonamido)-cyclobutyl-1-yl]-amino}-1H-pyrrolo[2,3-b]pyridin-5-carbonitrile]: the IC50 came to 13 nM on JAK2, 27 nM against JAK3 (4 uM ATP) and 5 nM against JAK1. In addition, the JAK2/JAK1 at JAK1 was found to be 2.60.
As for `COc1nsc(NC(=O)N2C[C@H]3C[C@H](Nc4c(C#N)cnc5[nH]ccc45)C[C@H]3C2)n1` [Compound H20, (3aR,5s,6aS)-5-((5-cyano-1H-pyrrolo[2,3-b]pyridin-4-yl)amino)-N-(3-methoxy-1,2,4-thiadiazole-5-yl)hexahydrocyclopentadiene[c]pyrrole-2(1H)-carboxamide], the values for the IC50 against JAK2, at JAK3 (4 uM ATP) and against JAK1 were 36 nM, 161 nM and 5.8 nM, respectively.
